Experimental data from patent US10526345B2, “Compounds as GPR119 agonists” (Mankind Pharma Ltd., priority 2016, dated 2020).
pEC50: −log10 of the molar value.

The compounds below were run against T1, hGPR119 (Homo sapiens, UniProt Q8TDV5) (assay: In vitro cyclic AMP assay (Cisbio dynamic 2 HTRF kit) in CHO-hGPR119 cells). Settings: 1 h, cAMP, compound at 1 μM, 60 min, read-out: Induction (% induction at 1 μM).
T1 construct: expressed in transfected cells; host or cells: CHO
T1 sequence (Q8TDV5 1-335): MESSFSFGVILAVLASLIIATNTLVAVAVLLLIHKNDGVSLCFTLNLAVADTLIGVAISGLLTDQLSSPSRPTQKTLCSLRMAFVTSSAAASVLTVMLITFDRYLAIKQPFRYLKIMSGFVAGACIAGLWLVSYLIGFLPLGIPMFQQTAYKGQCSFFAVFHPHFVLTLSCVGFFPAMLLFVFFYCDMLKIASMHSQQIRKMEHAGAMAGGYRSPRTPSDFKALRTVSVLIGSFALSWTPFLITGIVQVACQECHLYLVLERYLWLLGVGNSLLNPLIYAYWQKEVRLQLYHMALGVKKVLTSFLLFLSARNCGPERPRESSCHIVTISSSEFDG
Type: cell-based
Method: cAMP measurements were done using Cisbio dynamic 2 HTRF kit according to the manufacturer's protocol. Briefly, CHO-hGPR119 cells were plated at a cell density of 5000 cells/well/5 μl into a white small volume 384 well plate. The final concentrations of IBMX and DMSO used were 1 mM and 0.5% respectively. Cells were treated with various concentrations of the test compound for 60 min at room temperature. Cells were lysed by buffer containing Anti-cAMP antibody and d2-cAMP reagents and incubated for 1 hour at room temperature. HTRF was measured at 337 nm excitation and emission wavelengths of 665 nm and 620 nm on a microplate reader (Flurostar, BMG Labtech). Graphpad prism software was utilized for EC50 determinations.

SMILES	activation at 1 µM
CNS(=O)(=O)c1ccc(-c2ccc3nc(OC(C)C4CCN(c5nc(C(C)C)no5)CC4)sc3n2)cc1 (centres unmarked) [Compound 1061, 4-(2-(1-(1-(3-isopropyl-1,2,4-oxadiazol-5-yl)piperidin-4-yl)ethoxy)thiazolo[5,4-b]pyridin-5-yl)-N-methylbenzenesulfonamide]	48%
CC(C)c1noc(N2CCC(C(C)Oc3nc4ccc(-c5ccc(S(=O)(=O)C6CC6)cc5)nc4s3)CC2)n1 (centres unmarked) [Compound 1063, 5-(4-(1-((5-(4-(cyclopropylsulfonyl)phenyl)thiazolo[5,4-b]pyridin-2-yl)oxy)ethyl)piperidin-1-yl)-3-isopropyl-1,2,4-oxadiazole]	58%
CC(C)c1noc(N2CCC(C(C)Oc3nc4ccc(-c5ccc(C#N)cc5)nc4s3)CC2)n1 (centres unmarked) [Compound 1065, 4-(2-(1-(1-(3-isopropyl-1,2,4-oxadiazol-5-yl)piperidin-4-yl)ethoxy)thiazolo[5,4-b]pyridin-5-yl)benzonitrile]	60%
COCCNS(=O)(=O)c1ccc(-c2ccc3nc(OC(C)C4CCN(c5nc(C(C)C)no5)CC4)sc3n2)cc1 (centres unmarked) [Compound 1066, 4-(2-(1-(1-(3-isopropyl-1,2,4-oxadiazol-5-yl)piperidin-4-yl)ethoxy)thiazolo[5,4-b]pyridin-5-yl)-N-(2-methoxyethyl)benzenesulfonamide]	30%
COCCS(=O)(=O)c1ccc(-c2ccc3nc(OC(C)C4CCN(c5nc(C(C)C)no5)CC4)sc3n2)cc1 (centres unmarked) [Compound 1067, 3-isopropyl-5-(4-(1-((5-(4-((2-methoxyethyl)sulfonyl)phenyl)thiazolo[5,4-b]pyridin-2-yl)oxy)ethyl)piperidin-1-yl)-1,2,4-oxadiazole]	36%
COCC[S+]([O-])c1ccc(-c2ccc3nc(OC(C)C4CCN(c5nc(C(C)C)no5)CC4)sc3n2)cc1 (centres unmarked) [Compound 1068, 3-isopropyl-5-(4-(1-((5-(4-((2-methoxyethyl)sulfinyl)phenyl)thiazolo[5,4-b]pyridin-2-yl)oxy)ethyl)piperidin-1-yl)-1,2,4-oxadiazole]	13%
CC(C)c1noc(N2CCC(C(C)Oc3nc4ccc(-c5ccc(S(C)(=O)=O)nc5)nc4s3)CC2)n1 (centres unmarked) [Compound 1069, 3-isopropyl-5-(4-(1-((5-(6-(methylsulfonyl)pyridin-3-yl)thiazolo[5,4-b]pyridin-2-yl)oxy)ethyl)piperidin-1-yl)-1,2,4-oxadiazole]	80%
CC(C)c1noc(N2CCC([C@@H](C)Oc3nc4ccc(-c5ccncc5)nc4s3)CC2)n1 [Compound 1070, (R)-3-isopropyl-5-(4-(1-((5-(pyridin-4-yl)thiazolo[5,4-b]pyridin-2-yl)oxy)ethyl)piperidin-1-yl)-1,2,4-oxadiazole]	83%
CNS(=O)(=O)c1ccc(-c2ccc3nc(N4CCC(c5nc(C(C)C)no5)CC4)sc3n2)cc1 [Compound 1072, 4-(2-(4-(3-isopropyl-1,2,4-oxadiazol-5-yl)piperidin-1-yl)thiazolo[5,4-b]pyridin-5-yl)-N-methylbenzenesulfonamide]	17%
COCCNS(=O)(=O)c1ccc(-c2ccc3nc(N4CCC(c5nc(C(C)C)no5)CC4)sc3n2)cc1 [Compound 1073, 4-(2-(4-(3-isopropyl-1,2,4-oxadiazol-5-yl)piperidin-1-yl)thiazolo[5,4-b]pyridin-5-yl)-N-(2-methoxyethyl)benzenesulphonamide]	29%
CC(C)c1noc(N2CCC(C(C)Oc3nc4ccc(-c5ccc(NS(C)(=O)=O)cc5)nc4s3)CC2)n1 (centres unmarked) [Compound 1074, N-(4-(2-(1-(1-(3-isopropyl-1,2,4-oxadiazol-5-yl)piperidin-4-yl)ethoxy)thiazolo[5,4-b]pyridin-5-yl)phenyl)methanesulfonamide]	39%
CC(C)c1noc(C2CCN(c3nc4ccc(-c5ccncc5)nc4s3)CC2)n1 [Compound 1077, 3-isopropyl-5-(1-(5-(pyridin-4-yl)thiazolo[5,4-b]pyridin-2-yl)piperidin-4-yl)-1,2,4-oxadiazole]	12%
COCCS(=O)(=O)c1ccc(-c2ccc3nc(N4CCC(c5nc(C(C)C)no5)CC4)sc3n2)cc1 [Compound 1078, 3-isopropyl-5-(1-(5-(4-((2-methoxyethyl)sulfonyl)phenyl)thiazolo[5,4-b]pyridin-2-yl)piperidin-4-yl)-1,2,4-oxadiazole]	24%
CC(C)c1noc(N2CCC(C(C)Oc3nc4ccc(-c5ccc(-n6cnnn6)cc5)nc4s3)CC2)n1 (centres unmarked) [Compound 1079, 5-(4-(1-((5-(4-(1H-tetrazol-1-yl)phenyl)thiazolo[5,4-b]pyridin-2-yl)oxy)ethyl)piperidin-1-yl)-3-isopropyl-1,2,4-oxadiazole]	50%
CC(C)c1noc(C2CCN(c3nc4ccc(-c5ccc(S(C)(=O)=O)nc5)nc4s3)CC2)n1 [Compound 1080, 3-isopropyl-5-(1-(5-(6-(methylsulfonyl)pyridin-3-yl)thiazolo[5,4-b]pyridin-2-yl)piperidin-4-yl)-1,2,4-oxadiazole]	40%
CC(C)c1noc(N2CCC(C(C)Oc3nc4ccc(-c5ccnc(F)c5)nc4s3)CC2)n1 (centres unmarked) [Compound 1081, 5-(4-(1-((5-(2-fluoropyridin-4-yl)thiazolo[5,4-b]pyridin-2-yl)oxy)ethyl)piperidin-1-yl)-3-isopropyl-1,2,4-oxadiazole]	82%
CC(C)c1noc(N2CCC(COc3nc4ccc(-c5ccncc5)nc4s3)CC2)n1 [Compound 1083, 3-isopropyl-5-(4-(((5-(pyridin-4-yl)thiazolo[5,4-b]pyridin-2-yl)oxy)methyl)piperidin-1-yl)-1,2,4-oxadiazole]	14%
CC(C)c1noc(N2CCC(COc3nc4ccc(-c5ccncc5F)nc4s3)CC2)n1 [Compound 1084, 5-(4-(((5-(3-fluoropyridin-4-yl)thiazolo[5,4-b]pyridin-2-yl)oxy)methyl)piperidin-1-yl)-3-isopropyl-1,2,4-oxadiazole]	12%
CC(C)c1noc(N2CCC(COc3nc4ccc(-c5ccnc(F)c5)nc4s3)CC2)n1 [Compound 1086, 5-(4-(((5-(2-fluoropyridin-4-yl)thiazolo[5,4-b]pyridin-2-yl)oxy)methyl)piperidin-1-yl)-3-isopropyl-1,2,4-oxadiazole]	2%
CCc1ccc(N2CCC(C(C)Oc3nc4ccc(-c5ccc(S(C)(=O)=O)cc5)nc4s3)CC2)nc1 (centres unmarked) [Compound 1087, 2-(1-(1-(5-ethylpyridin-2-yl)piperidine-4-yl)ethoxy)-5-(4-(methylsulfonyl)phenyl)thiazolo[5,4-b]pyridine]	74%
C=Cc1ccc(N2CCC(C(C)Oc3nc4ccc(-c5ccc(S(C)(=O)=O)cc5)nc4s3)CC2)nc1 (centres unmarked) [Compound 1088, 5-(4-(methylsulfonyl)phenyl)-2-(1-(1-(5-vinylpyridin-2-yl)piperidin-4-yl)ethoxy)thiazolo[5,4-b]pyridine]	60%
CCCc1cnc(N2CCC([C@@H](C)Oc3nc4ccc(-c5ccc(S(C)(=O)=O)cc5)nc4s3)CC2)nc1 [Compound 1090, (R)-5-(4-(methylsulfonyl)phenyl)-2-(1-(1-(5-propylpyrimidin-2-yl)piperidin-4-yl)ethoxy)thiazolo[5,4-b]pyridine]	54%
CC(C)c1noc(N2CCC([C@H](C)Oc3nc4ccc(-c5ccncc5)nc4s3)CC2)n1 [Compound 1092, (S)-3-isopropyl-5-(4-(1-((5-(pyridin-4-yl)thiazolo[5,4-b]pyridin-2-yl)oxy)ethyl)piperidin-1-yl)-1,2,4-oxadiazole]	9%
CC(C)c1noc(N2CCC([C@H](C)Oc3nc4ccc(-c5ccnc(F)c5)nc4s3)CC2)n1 [Compound 1093, (S)-5-(4-(1-((5-(2-fluoropyridin-4-yl)thiazolo[5,4-b]pyridin-2-yl)oxy)ethyl)piperidin-1-yl)-3-isopropyl-1,2,4-oxadiazole]	82%
CC(C)c1noc(N2CCC(C(Oc3nc4ccc(-c5ccc(S(C)(=O)=O)cc5)nc4s3)C(F)(F)F)CC2)n1 (centres unmarked) [Compound 1094, 3-isopropyl-5-(4-(2,2,2-trifluoro-1-((5-(4-(methysulfonyl)phenyl)thiazolo[5,4-b]pyridin-2-yl)oxy)ethyl)piperidin-1-yl)-1,2,4-oxadiazole]	24%
CC(C)c1noc(N2CCC([C@H](C)Oc3nc4ccc(-c5ccc(S(=O)(=O)C6CC6)cc5)nc4s3)CC2)n1 [Compound 1095, (S)-5-(4-(1-((5-(4-(cyclopropylsulfonyl)phenyl)thiazolo[5,4-b]pyridin-2-yl)oxy)ethyl)piperidin-1-yl)-3-isopropyl-1,2,4-oxadiazole]	84%

Same assay, conditions: cAMP

SMILES	pEC50
CC(C)c1noc(N2CCC([C@@H](C)Oc3nc4ccc(-c5ccncc5)nc4s3)CC2)n1 [Compound 1070, (R)-3-isopropyl-5-(4-(1-((5-(pyridin-4-yl)thiazolo[5,4-b]pyridin-2-yl)oxy)ethyl)piperidin-1-yl)-1,2,4-oxadiazole]	7.00 to 7.30
CC(C)c1noc(N2CCC([C@H](C)Oc3nc4ccc(-c5ccnc(F)c5)nc4s3)CC2)n1 [Compound 1093, (S)-5-(4-(1-((5-(2-fluoropyridin-4-yl)thiazolo[5,4-b]pyridin-2-yl)oxy)ethyl)piperidin-1-yl)-3-isopropyl-1,2,4-oxadiazole]	> 7.60

Same assay, conditions: cAMP, compound at 1 μM, 60 min

SMILES	Induction (% induction at 1 μM)
CC(C)c1noc(N2CCC([C@H](C)Oc3nc4ccc(-c5ccncc5F)nc4s3)CC2)n1 [Compound 1076, (S)-5-(4-(1-((5-(3-fluoropyridin-4-yl)thiazolo[5,4-b]pyridin-2-yl)oxy)ethyl)piperidin-1-yl)-3-isopropyl-1,2,4-oxadiazole]	35%
